Data taken from PubChem BioAssay (NCI).
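Growth conditions: 96-well plates. Treatment: test compound, 48 hours, 5 concentrations. Analysis: linear interpolation between bracketing concentrations; unreached endpoints set to highest concentration. Abbreviation: GI50, concentration required for 50% inhibition of growth. TGI denotes the concentration required for complete inhibition of growth.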

Legend:
Assay in all cases: DTP human tumour cell line panel, 48 h
UACC-257 melanoma = system: UACC-257 melanoma
MDA-MB-231 breast = system: MDA-MB-231 breast
TK-10 renal = system: TK-10 renal
MALME-3M melanoma = system: MALME-3M melanoma
SK-MEL-2 melanoma = system: SK-MEL-2 melanoma
NCI/ADR-RES ovarian = system: NCI/ADR-RES ovarian
BT-549 breast = system: BT-549 breast
SNB-19 CNS = system: SNB-19 CNS
SF-539 CNS = system: SF-539 CNS
DU-145 prostate = system: DU-145 prostate
ACHN renal = system: ACHN renal
A498 renal = system: A498 renal
MOLT-4 leukemia = system: MOLT-4 leukemia
SW-620 colon = system: SW-620 colon
NCI-H226 lung = system: NCI-H226 lung
M14 melanoma = system: M14 melanoma
NCI-H522 lung = system: NCI-H522 lung
OVCAR-4 ovarian = system: OVCAR-4 ovarian
HS 578T breast = system: HS 578T breast
HCT-116 colon = system: HCT-116 colon
MCF7 breast = system: MCF7 breast
EKVX NSCLC = system: EKVX NSCLC
786-0 renal = system: 786-0 renal
U251 CNS = system: U251 CNS
RXF 393 renal = system: RXF 393 renal
LOX IMVI melanoma = system: LOX IMVI melanoma
A549 NSCLC = system: A549 NSCLC
KM12 colon = system: KM12 colon
IGROV1 ovarian = system: IGROV1 ovarian
PC-3 prostate = system: PC-3 prostate
K-562 leukemia = system: K-562 leukemia
HT29 colon = system: HT29 colon
OVCAR-8 ovarian = system: OVCAR-8 ovarian
CAKI-1 renal = system: CAKI-1 renal
OVCAR-5 ovarian = system: OVCAR-5 ovarian
NCI-H460 lung = system: NCI-H460 lung
HOP-62 NSCLC = system: HOP-62 NSCLC
SK-OV-3 ovarian = system: SK-OV-3 ovarian
SF-295 CNS = system: SF-295 CNS
HCT-15 colon = system: HCT-15 colon
SK-MEL-28 melanoma = system: SK-MEL-28 melanoma
SN12C renal = system: SN12C renal
HOP-92 NSCLC = system: HOP-92 NSCLC
OVCAR-3 ovarian = system: OVCAR-3 ovarian
SK-MEL-5 melanoma = system: SK-MEL-5 melanoma
COLO 205 colon = system: COLO 205 colon
NCI-H23 lung = system: NCI-H23 lung
RPMI-8226 leukemia = system: RPMI-8226 leukemia
SF-268 CNS = system: SF-268 CNS
UO-31 renal = system: UO-31 renal
T-47D breast = system: T-47D breast
UACC-62 melanoma = system: UACC-62 melanoma
HCC-2998 colon = system: HCC-2998 colon
MDA-MB-435 = system: MDA-MB-435

With C=C1C(=O)O[C@H]2[C@H]1CC/C(COC(=O)NCc1ccc(Cn3c(=O)sn(CCI)c3=O)cc1)=C\CC[C@@]1(C)O[C@@H]21 the GI50 (UACC-257 melanoma) was 2.24 µM, the TGI (UACC-257 melanoma) was 4.82 µM and the GI50 (MDA-MB-231 breast) was 1.77 µM. It also gave a TGI (MDA-MB-231 breast) of 3.31 µM, a GI50 (TK-10 renal) of 1.91 µM and a TGI (TK-10 renal) of 3.68 µM. For the same molecule, the GI50 (MALME-3M melanoma) was 1.68 µM, the TGI (MALME-3M melanoma) was 3.4 µM and the GI50 (SK-MEL-2 melanoma) was 11.7 µM. It also gave a TGI (SK-MEL-2 melanoma) of 26.2 µM, a GI50 (NCI/ADR-RES ovarian) of 20.3 µM and a TGI (NCI/ADR-RES ovarian) of 47.2 µM. For the same molecule, the GI50 (BT-549 breast) was 2.4 µM, the TGI (BT-549 breast) was 6.08 µM and the GI50 (SNB-19 CNS) was 6.88 µM. The TGI (SNB-19 CNS) was 19.9 µM, the GI50 (SF-539 CNS) was 1.72 µM and the TGI (SF-539 CNS) was 3.18 µM. For the same molecule, the GI50 (DU-145 prostate) was 1.82 µM, the TGI (DU-145 prostate) was 3.29 µM and the GI50 (ACHN renal) was 1.89 µM. The TGI (ACHN renal) was 3.37 µM, the GI50 (A498 renal) was 4.44 µM and the TGI (A498 renal) was 20 µM. For the same molecule, the GI50 (MOLT-4 leukemia) was 1.35 µM, the TGI (MOLT-4 leukemia) was 5.35 µM and the GI50 (SW-620 colon) was 1.66 µM. For the same molecule, the TGI (SW-620 colon) was 3.25 µM, the GI50 (NCI-H226 lung) was 15.1 µM and the TGI (NCI-H226 lung) was 33.1 µM. The GI50 (M14 melanoma) was 1.82 µM, the TGI (M14 melanoma) was 3.59 µM and the GI50 (NCI-H522 lung) was 1.72 µM. For the same molecule, the TGI (NCI-H522 lung) was 3.36 µM, the GI50 (OVCAR-4 ovarian) was 2.02 µM and the TGI (OVCAR-4 ovarian) was 4.19 µM. The GI50 (HS 578T breast) was 7.29 µM, the TGI (HS 578T breast) was 42.4 µM and the GI50 (HCT-116 colon) was 1.76 µM. The TGI (HCT-116 colon) was 3.27 µM, the GI50 (MCF7 breast) was 1.71 µM and the TGI (MCF7 breast) was 3.64 µM. For the same molecule, the GI50 (EKVX NSCLC) was 2.11 µM, the TGI (EKVX NSCLC) was 5.58 µM and the GI50 (786-0 renal) was 1.82 µM. It also gave a TGI (786-0 renal) of 3.36 µM, a GI50 (U251 CNS) of 4.67 µM and a TGI (U251 CNS) of 16 µM. It also gave a GI50 (RXF 393 renal) of 1.61 µM, a TGI (RXF 393 renal) of 3.13 µM and a GI50 (LOX IMVI melanoma) of 1.69 µM. For the same molecule, the TGI (LOX IMVI melanoma) was 3.11 µM, the GI50 (A549 NSCLC) was 16.6 µM and the TGI (A549 NSCLC) was 32.4 µM. It also gave a GI50 (KM12 colon) of 8.15 µM, a TGI (KM12 colon) of 23.1 µM and a GI50 (IGROV1 ovarian) of 2.08 µM. It also gave a TGI (IGROV1 ovarian) of 4.07 µM, a GI50 (PC-3 prostate) of 1.75 µM and a TGI (PC-3 prostate) of 3.33 µM. The GI50 (K-562 leukemia) was 0.655 µM, the TGI (K-562 leukemia) was > 100 µM and the GI50 (HT29 colon) was 2.1 µM. The TGI (HT29 colon) was 4.05 µM, the GI50 (OVCAR-8 ovarian) was 4.55 µM and the TGI (OVCAR-8 ovarian) was 18.9 µM. It also gave a GI50 (CAKI-1 renal) of 3.79 µM, a TGI (CAKI-1 renal) of 14 µM and a GI50 (OVCAR-5 ovarian) of 3.27 µM. For the same molecule, the TGI (OVCAR-5 ovarian) was 10.1 µM, the GI50 (NCI-H460 lung) was 6.42 µM and the TGI (NCI-H460 lung) was 22.7 µM. It also gave a GI50 (HOP-62 NSCLC) of 11.7 µM, a TGI (HOP-62 NSCLC) of 24.2 µM and a GI50 (SK-OV-3 ovarian) of 15.2 µM. It also gave a TGI (SK-OV-3 ovarian) of 28.5 µM, a GI50 (SF-295 CNS) of 13.6 µM and a TGI (SF-295 CNS) of 27.1 µM. For the same molecule, the GI50 (HCT-15 colon) was 1.91 µM, the TGI (HCT-15 colon) was 4.1 µM and the GI50 (SK-MEL-28 melanoma) was 2.06 µM. The TGI (SK-MEL-28 melanoma) was 3.74 µM, the GI50 (SN12C renal) was 2.16 µM and the TGI (SN12C renal) was 5.38 µM. It also gave a GI50 (HOP-92 NSCLC) of 1.38 µM, a TGI (HOP-92 NSCLC) of 2.76 µM and a GI50 (OVCAR-3 ovarian) of 1.64 µM. It also gave a TGI (OVCAR-3 ovarian) of 3.05 µM, a GI50 (SK-MEL-5 melanoma) of 5.37 µM and a TGI (SK-MEL-5 melanoma) of 17.9 µM. It also gave a GI50 (COLO 205 colon) of 1.86 µM, a TGI (COLO 205 colon) of 3.55 µM and a GI50 (NCI-H23 lung) of 3.46 µM. The TGI (NCI-H23 lung) was 13.6 µM, the GI50 (RPMI-8226 leukemia) was 1.98 µM and the TGI (RPMI-8226 leukemia) was 5.11 µM. It also gave a GI50 (SF-268 CNS) of 2.41 µM, a TGI (SF-268 CNS) of 6.26 µM and a GI50 (UO-31 renal) of 1.65 µM. For the same molecule, the TGI (UO-31 renal) was 3.11 µM, the GI50 (T-47D breast) was 1.32 µM and the TGI (T-47D breast) was 3.06 µM. For the same molecule, the GI50 (UACC-62 melanoma) was 1.98 µM, the TGI (UACC-62 melanoma) was 4.08 µM and the GI50 (HCC-2998 colon) was 10.4 µM. For the same molecule, the TGI (HCC-2998 colon) was 22.5 µM, the GI50 (MDA-MB-435) was 2.45 µM and the TGI (MDA-MB-435) was 6.62 µM.
